Patent publication US10738024B2, “Compounds for treatment of angiogenesis-mediated diseases” (Indiana University Research and Technology Corporation, priority 2013, dated 2020)
“Also recorded” adds a separate entry of the source.

Tested on: HRECs
Test: EdU incorporation (DNA synthesis) in HRECs
Type: cell-based, human
Details: 24 hours treatment, 10 μM EdU pulse; listed as SH-11052 (2)
Description: In order to confirm the inhibition of cell proliferation, incorporation of 5-ethynyl-2′-deoxyuridine (EdU) into endothelial cells in the presence of SH-11052 (2) was further monitored. Particularly, cells (25,000 per coverslip) were seeded onto coverslips coated with Attachment Factor (Cell Systems, Kirkland, Wash., USA) placed in a 6-well plate and incubated with the indicated concentrations of SH-11052 (2) in EGM-2 for 24 hours at 37° C. and 5% CO2. The cells were then serum starved for 8 hours and the medium was replaced with EGM-2 containing 10 μM EdU. The plate was further incubated for another 8 hours before processing the cells for detection of labeled DNA (according to the manufacturer's instructions for the Click-iT EdU assay kit). Images were taken using an EVOS fluorescence microscope (AMG, Mill Creek, Wash., USA) and the number of DAPI stained and EdU stained cells were counted in six randomly chosen fields using ImageJ software.

With `COc1ccc(CC2COc3cc(OC)c(O)c(O)c3C2=O)cc1O` (single isomer, unassigned) [Compound 2] the “DNA synthesis (EdU incorporation) in HRECs” value was “blocked EdU incorporation; also recorded: significantly inhibited in a dose dependent manner”.
